Series [1] concerns black beans, red beans, and pinto beans. To be noted: in vivo.
From the text: Edible black beans, red beans, and pinto beans were purchased from local supermarket. 12 black beans, 12 red beans, and 9 pinto beans were randomly chosen and set aside in lab atmosphere for 7 days. […] Beans were separated into three plastic petri dishes, into which four black beans, four red beans and three pinto beans each were placed. Three water environments were simulated, and beans were immersed with reference sea water, 0.25 wt % pristine KGM in sea water, and 0.25 wt % modified konjac glucomannan in sea water for 7 days.
A short description of series [2]: Herding efficiency of PEG derivatives and commercial surfactants (slick thickness ratio vs herder concentration). To be noted: 25° C. The protocol:
Herding surfactant is essentially a surface-active agent. To preliminarily investigate the material herding efficiency to oil, suitable polymer surfactants with […] were tested. Polyethylene glycol (PEG) is a water soluble polymer and easy to couple with hydrophobic chain to form surfactant. The experiments were performed at room temperature. The slick thickness ratio is defined as below: […]
Higher slick thickness ratio implied better herding quality. […] The effectiveness of surfactants at herding oil is directly related to the chemical structure of the PEG derivatives. […] The reason of slick thickness ratio curve of FIG. 8C and FIG. 8D remained flat were assumed to be its internal chemical structure large benzene rings and two side longer carbon chains. The benzene rings and longer carbon chains affected the steric hindrance of materials and largely restricted the hydrophobic side reaction with oil slick. They could not perform herding effect and thus curves in FIG. 8C and FIG. 8D remained flat, and the thickness ratio was close to 1.
More comparisons were tested to study herder efficiency with different commercial surfactants at varying temperatures and salinity. […] In FIG. 9B, the PEG-monolaurate retained high herding ability under 25° C. […]

Series [3] can be described thus: Conductivity versus temperature / determination of Krafft point. It counts as physicochemical. To be noted: for Conductivity: SDS (0.1 mol/L) in water. The protocol:
The hand-held conductivity/TDS meter CN 6/TDS 6 of Oakton instruments was used to measure the conductivity and the temperature of the sample.
Sodium dodecyl sulfate (Ionic surfactant): sodium dodecyl sulfate in deionized water solution (0.1 mol/l) was prepared in a 200 ml glass beaker. The solution was stored in refrigerator at 5° C. for 24 hours. The sodium dodecyl sulfate surfactant has crystallized below the 5° C. atmosphere. The glass beaker was taken out of the refrigerator and placed on a hot plate stirrer. The conductivity meter probe was immersed into the solution. The dual measuring mode of conductivity meter could measure both the conductivity and the temperature. The solution was slightly heated to remain 0.2° C./min increase. The measured conductivity and temperature data were drawn in FIGS. 2A-2B. […]
Krafft temperature and solubility behavior of the ionic surfactant SDS and the non-ionic surfactant modified konjac glucomannan were discussed in FIGS. 2A-2D. […] The conductivity measurement was proven to be able to identify the Krafft temperature. Krafft temperature is the minimum temperature for surfactant to form micelles. There is an abrupt large solubility increase above the Krafft temperature. Surfactant working temperature should be higher than Krafft temperature for surfactant functioning.
First, 200 ml of SDS in deionized water solution of 0.1 mol/L concentration was prepared in a 200 ml glass beaker. The solution was left in refrigerator at 5° C. for 24 hours. This process has brought about the crystallization of the surfactant. The glass beaker is taken out of the refrigerator and placed on a hot plate stirrer (CORNING PC-420). The probe stick of the conductivity meter (TDS meter CON 6/TDS 6) is inserted into the solution. The dual measuring mode of conductivity meter can measure both the conductivity and the temperature. The conductivity of the solution is recorded from 12° C. and measured till 28° C. The solution is slightly heated to attain a steady temperature rise. The conductivity is measured at regular intervals of temperature (0.2° C. raise) and noted down. The whole process took about 2.5 hours. […]

With konjac glucomannan, the “growth (sprouting) of beans” value in series [1] is recorded as “did not affect the growth of the beans”.
Turning to Span-20, the herding ability result in series [2] is “good herding ability”.
As for `CCCCCCCCCCCCOS(=O)(=O)[O-].[Na+]` [SDS, sodium dodecyl sulfate], in series [3] (0.1 mol/L in deionized water), the “Krafft temperature (sudden large increase in conductivity)” value came out at 14.6 °C. In addition, the Conductivity in series [3] (13 ° C.) is 3.07 mS; in series [3] (13.2 ° C.), 3.07 mS; in series [3] (13.4 ° C.), 3.09 mS; in series [3] (13.6 ° C.), 3.1 mS; in series [3] (13.8 ° C.), 3.11 mS; in series [3] (14 ° C.) it was 3.11 mS. In addition, the Conductivity came to 3.12 mS in series [3] (14.2 ° C.); 3.14 mS in series [3] (14.4 ° C.); 3.25 mS in series [3] (14.6 ° C.); 3.34 mS in series [3] (14.8 ° C.); 3.56 mS in series [3] (15 ° C.); 3.82 mS in series [3] (15.2 ° C.). Further, the Conductivity in series [3] (15.4 ° C.) is 4.02 mS; in series [3] (15.6 ° C.) it was 4.21 mS; in series [3] (15.8 ° C.), 4.3 mS; in series [3] (16 ° C.) it was 4.35 mS; in series [3] (16.2 ° C.) it was 4.37 mS; in series [3] (16.4 ° C.) it was 4.38 mS. The Conductivity in series [3] (16.6 ° C.) turned out to be 4.34 mS; in series [3] (16.8 ° C.) it was 4.39 mS; in series [3] (17 ° C.), 4.39 mS; in series [3] (17.2 ° C.), 4.41 mS; in series [3] (17.4 ° C.), 4.43 mS; in series [3] (17.6 ° C.) it was 4.44 mS. Besides, the Conductivity in series [3] (17.8 ° C.) was 4.45 mS; in series [3] (18 ° C.), 4.49 mS; in series [3] (18.6 ° C.) it was 4.5 mS; in series [3] (19 ° C.), 4.51 mS; in series [3] (19.4 ° C.), 4.53 mS; in series [3] (20 ° C.) it was 4.57 mS. Moreover, the Conductivity in series [3] (21 ° C.) came out at 4.6 mS; in series [3] (22 ° C.), 4.65 mS; in series [3] (23 ° C.) it was 4.67 mS; in series [3] (24 ° C.), 4.7 mS; in series [3] (25 ° C.), 4.72 mS; in series [3] (26 ° C.), 4.75 mS. The results for the Conductivity in series [3] (27 ° C.) and in series [3] (28 ° C.) were 4.77 mS and 4.82 mS, respectively.

For the origin of these results see US20220195275A1, “Biocompatible Oil Herders and Methods of Use” (Texas A&M University, priority 2019, published 2022).
